Assay [1] deals with dopaminergic receptors D2 (Homo sapiens, UniProt P14416). The experiment in a line: Radioligand binding assay, dopaminergic D2 receptors. The conditions noted are these: binding assay, test compound 1×10^−6 M. Summed up: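 Competition binding with scintillation counting of bound radioligand; specific binding taken as total minus non-specific binding measured with excess unlabelled ligand. IC50 obtained by Hill-equation non-linear regression of replicate-mean curves, then converted to Ki via Cheng–Prusoff using radioligand concentration and Scatchard-derived KD.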

For assay [2], the target named is dopaminergic receptors D3 (Homo sapiens, UniProt P35462). The experiment in a line: Radioligand binding assay, dopaminergic D3 receptors. To be noted: test compound 1×10^−6 M. Summed up:
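Competition radioligand binding at human D2, D3 and D4.4 receptors, detected by scintillation counting; nonspecific binding defined with excess unlabelled ligand. Results as percent inhibition of control specific binding; IC50 by Hill-equation nonlinear regression; Ki via Cheng-Prusoff, with radioligand KD from Scatchard plot.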

Assay [3] deals with T1, 5-HT1A receptor (rat hippocampus) (Rattus norvegicus, UniProt P19327).
T1 construct: hippocampus; from tissue; host or cells: rat hippocampus
T1 sequence (P19327 1-422): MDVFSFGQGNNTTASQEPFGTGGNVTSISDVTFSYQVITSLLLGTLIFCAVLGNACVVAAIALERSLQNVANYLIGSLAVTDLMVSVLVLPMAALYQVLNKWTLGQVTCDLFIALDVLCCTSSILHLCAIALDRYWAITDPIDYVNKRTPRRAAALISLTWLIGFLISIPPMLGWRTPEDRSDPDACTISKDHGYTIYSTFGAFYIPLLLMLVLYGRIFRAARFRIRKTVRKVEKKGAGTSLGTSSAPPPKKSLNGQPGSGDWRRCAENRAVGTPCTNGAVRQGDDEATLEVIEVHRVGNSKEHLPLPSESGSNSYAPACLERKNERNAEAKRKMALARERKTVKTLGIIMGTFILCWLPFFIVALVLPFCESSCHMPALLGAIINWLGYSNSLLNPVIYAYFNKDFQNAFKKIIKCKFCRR
The experiment in a line: Radioligand binding assay, serotoninergic 5-HT1A receptors.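 Further: test compound at 1 µM.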 The conditions noted are these: binding assay result in %, Table 5a.

The target of assay [4] is T2, 5-HT2A receptor (Homo sapiens, UniProt P28223).
T2 construct: purchased PerkinElmer
The experiment in a line: Radioligand binding assay, serotoninergic 5-HT2A receptors. To be noted: binding assay result in %, Table 5a. The method, boiled down: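 Radioligand competition binding with scintillation counting; nonspecific binding defined by excess unlabelled ligand. Data as percent inhibition of control specific binding. IC50 by Hill-equation fit of competition curves; Ki by Cheng-Prusoff, with radioligand Kd from Scatchard plot.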

Assay [5] addresses T3, 5-HT6 receptor (Homo sapiens, UniProt P50406).
T3 construct: purchased PerkinElmer
The experiment in a line: Radioligand binding assay, serotoninergic 5-HT6 receptors.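 Further: test compound at 1 µM.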 To be noted: binding assay result in %, Table 5a. Summed up:
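Values are Ki from Cheng–Prusoff, taking IC50 from Hill nonlinear regression of competition curves and KD from a Scatchard plot. Specific binding was total minus binding with excess unlabelled ligand. Radioligand displacement was detected by scintillation counting, and data were also reported as percent of control specific binding.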

Assay [6] deals with T4, 5-HT7 receptor (Homo sapiens, UniProt P34969).
T4 construct: purchased PerkinElmer
The experiment in a line: Radioligand binding assay, serotoninergic 5-HT7 receptors.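 Further: test compound at 1 µM.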 The conditions noted are these: binding assay result in %, Table 5a. Summed up: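 Competition binding at human 5-HT7 receptors with a radioligand, detected by scintillation counting; non-specific binding was defined with excess unlabelled ligand. IC50 came from Hill-equation fits of competition curves, and Ki from Cheng–Prusoff using radioligand concentration and Scatchard-derived KD.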

Assay [7] concerns α1 adrenergic receptors (rat cerebral cortex). The experiment in a line: Radioligand binding assay, adrenergic α1 receptors. To be noted: test compound 1×10^−6 M. Summed up: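 Values derive from radioligand displacement, with non-specific binding defined by excess cold ligand and detection by scintillation. Hill-fit IC50s were converted to Ki via Cheng-Prusoff using Scatchard-derived Kd; percent inhibition of control specific binding also reported.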

Assay [8] addresses T5, serotonin transporter (SERT) (Homo sapiens, UniProt P31645).
T5 construct: expressed in transfected cells; host or cells: CHO cells
The experiment in a line: Radioligand binding assay, serotonin transporter (SERT). To be noted: binding assay, test compound 1×10^−6 M. The method, boiled down:
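Radioligand competition binding with scintillation detection; specific binding is total minus binding under excess unlabelled ligand. Reported as % of control specific binding or % inhibition; IC50 from Hill-equation non-linear regression of competition curves, and Ki via Cheng-Prusoff using radioligand concentration and Scatchard-derived KD.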

dopaminergic receptors D2, sequence (P14416 whole entry): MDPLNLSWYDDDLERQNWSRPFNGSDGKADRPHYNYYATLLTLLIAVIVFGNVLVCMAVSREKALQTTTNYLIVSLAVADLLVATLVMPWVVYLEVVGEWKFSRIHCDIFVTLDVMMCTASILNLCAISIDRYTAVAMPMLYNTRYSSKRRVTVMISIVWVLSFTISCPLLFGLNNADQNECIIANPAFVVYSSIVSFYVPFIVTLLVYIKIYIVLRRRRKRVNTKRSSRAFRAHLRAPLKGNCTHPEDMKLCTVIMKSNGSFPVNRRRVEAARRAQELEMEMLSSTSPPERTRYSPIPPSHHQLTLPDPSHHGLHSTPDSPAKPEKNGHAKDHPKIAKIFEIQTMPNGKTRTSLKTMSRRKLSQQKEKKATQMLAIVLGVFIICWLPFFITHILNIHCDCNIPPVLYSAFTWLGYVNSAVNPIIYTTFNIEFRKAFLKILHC
T2 sequence (P28223 whole entry): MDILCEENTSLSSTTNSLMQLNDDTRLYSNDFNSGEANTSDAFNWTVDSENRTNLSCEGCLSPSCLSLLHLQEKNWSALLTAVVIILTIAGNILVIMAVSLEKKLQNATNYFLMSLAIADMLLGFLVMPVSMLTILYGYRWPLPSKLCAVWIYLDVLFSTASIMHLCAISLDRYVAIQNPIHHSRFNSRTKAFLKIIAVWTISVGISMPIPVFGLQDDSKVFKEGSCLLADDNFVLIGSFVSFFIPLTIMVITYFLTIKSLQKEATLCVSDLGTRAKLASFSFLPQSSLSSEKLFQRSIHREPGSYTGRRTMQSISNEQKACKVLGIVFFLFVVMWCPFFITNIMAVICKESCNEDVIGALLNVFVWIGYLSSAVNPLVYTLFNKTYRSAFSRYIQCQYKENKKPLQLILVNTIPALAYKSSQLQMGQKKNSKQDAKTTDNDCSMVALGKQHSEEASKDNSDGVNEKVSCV
T4 sequence (P34969 whole entry): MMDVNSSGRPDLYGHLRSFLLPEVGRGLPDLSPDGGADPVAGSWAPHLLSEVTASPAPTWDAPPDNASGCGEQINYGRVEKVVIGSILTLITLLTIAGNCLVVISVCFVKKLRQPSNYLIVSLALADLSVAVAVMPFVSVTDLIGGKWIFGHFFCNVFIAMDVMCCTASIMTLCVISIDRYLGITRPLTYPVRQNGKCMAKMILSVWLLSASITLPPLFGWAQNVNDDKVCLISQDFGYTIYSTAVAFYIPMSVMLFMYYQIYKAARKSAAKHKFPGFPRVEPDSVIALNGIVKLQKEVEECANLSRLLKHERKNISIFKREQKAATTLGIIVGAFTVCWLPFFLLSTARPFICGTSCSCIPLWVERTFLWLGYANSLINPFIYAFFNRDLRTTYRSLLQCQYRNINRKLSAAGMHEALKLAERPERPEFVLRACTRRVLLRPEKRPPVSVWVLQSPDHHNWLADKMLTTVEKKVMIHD
T5 sequence (P31645 whole entry): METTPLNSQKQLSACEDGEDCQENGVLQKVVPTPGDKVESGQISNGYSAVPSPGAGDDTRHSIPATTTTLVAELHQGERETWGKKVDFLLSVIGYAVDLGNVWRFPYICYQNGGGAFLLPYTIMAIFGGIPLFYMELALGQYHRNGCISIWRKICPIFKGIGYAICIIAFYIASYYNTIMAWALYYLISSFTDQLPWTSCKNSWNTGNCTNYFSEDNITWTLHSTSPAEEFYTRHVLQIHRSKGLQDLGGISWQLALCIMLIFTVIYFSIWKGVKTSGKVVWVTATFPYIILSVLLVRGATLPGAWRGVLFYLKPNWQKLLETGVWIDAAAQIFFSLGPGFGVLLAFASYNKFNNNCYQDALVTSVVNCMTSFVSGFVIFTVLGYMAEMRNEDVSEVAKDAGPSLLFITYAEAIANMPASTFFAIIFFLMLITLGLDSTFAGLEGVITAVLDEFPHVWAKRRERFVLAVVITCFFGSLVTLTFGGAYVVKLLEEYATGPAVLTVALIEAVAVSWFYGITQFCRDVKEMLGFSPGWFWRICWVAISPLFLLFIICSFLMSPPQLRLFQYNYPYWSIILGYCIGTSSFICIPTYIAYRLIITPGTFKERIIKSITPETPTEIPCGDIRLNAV
dopaminergic receptors D3, sequence (P35462 whole entry): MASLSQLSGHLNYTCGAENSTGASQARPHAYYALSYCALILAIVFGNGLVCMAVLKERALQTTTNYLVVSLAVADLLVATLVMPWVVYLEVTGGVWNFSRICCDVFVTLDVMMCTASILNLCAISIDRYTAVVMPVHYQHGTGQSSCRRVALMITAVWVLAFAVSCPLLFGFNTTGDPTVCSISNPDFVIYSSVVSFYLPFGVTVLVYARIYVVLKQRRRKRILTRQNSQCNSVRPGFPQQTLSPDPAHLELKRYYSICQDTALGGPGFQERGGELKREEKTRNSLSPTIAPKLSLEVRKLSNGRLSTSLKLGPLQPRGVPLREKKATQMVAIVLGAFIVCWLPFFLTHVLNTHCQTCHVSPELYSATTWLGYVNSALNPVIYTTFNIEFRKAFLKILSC
T3 sequence (P50406 whole entry): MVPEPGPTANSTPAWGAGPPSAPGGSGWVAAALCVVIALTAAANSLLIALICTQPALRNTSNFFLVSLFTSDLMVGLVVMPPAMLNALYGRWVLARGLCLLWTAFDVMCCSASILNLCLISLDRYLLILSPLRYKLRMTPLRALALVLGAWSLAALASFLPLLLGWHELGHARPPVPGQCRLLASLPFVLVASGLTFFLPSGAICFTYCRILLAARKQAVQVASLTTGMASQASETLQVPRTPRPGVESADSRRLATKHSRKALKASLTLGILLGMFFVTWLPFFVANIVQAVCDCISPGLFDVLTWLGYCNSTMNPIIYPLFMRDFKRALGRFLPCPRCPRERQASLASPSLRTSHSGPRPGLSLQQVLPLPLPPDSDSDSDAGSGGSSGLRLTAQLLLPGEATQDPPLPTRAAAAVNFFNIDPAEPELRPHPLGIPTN

As to `O=S(=O)(NCC1CN(CCOc2cccc3c2OCCO3)C1)c1cccs1` [Compound 184, N-[[1-[2-(2,3-Dihydro-1,4-benzodioxin-5-yloxy)ethyl]azetidin-3-yl]methyl]-thiophene-2-sulphonamide], the inhibition at 1 µM in assay [1] was 24%; in assay [2] it was 39%; in assay [3], 71%; in assay [4], 76%; in assay [5], 20%; in assay [6], 89%. Moreover, the inhibition at 1 µM in assay [8] turned out to be 1%. Besides, the “α1 [%]” value in assay [7] is recorded as 88%.

As to `O=S(=O)(NCC1CN(CCOc2cccc3c2OCCO3)C1)c1ccc(Br)cc1` [Compound 185, 4-Bromo-N-[[1-[2-(2,3-dihydro-1,4-benzodioxin-5-yloxy)ethyl]azetidin-3-yl]methyl]benzenesulphonamide], the inhibition at 1 µM in assay [1] came to 25%; in assay [2], 0%; in assay [3], 88%; in assay [4], 39%; in assay [5] it was 23%; in assay [6] it was 90%. Besides, the inhibition at 1 µM in assay [8] came to 23%. Moreover, the “α1 [%]” value in assay [7] came to 34%.

On to `Cn1ccc2cc(S(=O)(=O)NCC3CN(CCOc4cccc5c4OCCO5)C3)ccc21` [Compound 187, N-[[1-[2-(2,3-Dihydro-1,4-benzodioxin-5-yloxy)ethyl]azetidin-3-yl]methyl]-1-methyl-indole-5-sulphonamide], for which the inhibition at 1 µM is 56% in assay [1]; 48% in assay [2]; 78% in assay [3]; 93% in assay [4]; 44% in assay [5]; 98% in assay [6]. For the same compound, in assay [8], the inhibition at 1 µM was determined as 69%. The “α1 [%]” value in assay [7] came out at 88%.

For `Cn1ccc2c(S(=O)(=O)NCC3CN(CCOc4cccc5c4OCCO5)C3)cccc21` [Compound 188, N-[[1-[2-(2,3-Dihydro-1,4-benzodioxin-5-yloxy)ethyl]azetidin-3-yl]methyl]-1-methyl-indole-4-sulphonamide], the inhibition at 1 µM in assay [1] was 52%; in assay [2] it was 51%; in assay [3], 101%; in assay [4], 89%; in assay [5], 14%; in assay [6] it was 91%. Moreover, in assay [8], the inhibition at 1 µM came out at 44%. The “α1 [%]” value in assay [7] was found to be 91%.

Turning to `O=C1Cc2cc(S(=O)(=O)NCC3CN(CCOc4cccc5c4OCCO5)C3)ccc2N1` [Compound 189, N-[[1-[2-(2,3-Dihydro-1,4-benzodioxin-5-yloxy)ethyl]azetidin-3-yl]methyl]-2-oxo-indoline-5-sulphonamide], the inhibition at 1 µM in assay [1] was 71%; in assay [2] it was 61%; in assay [3], 112%; in assay [4], 74%; in assay [5], 46%; in assay [6] it was 90%. In addition, the inhibition at 1 µM in assay [8] worked out at 41%. Also, the “α1 [%]” value in assay [7] came to 71%.

Regarding `O=S(=O)(NCC1CN(CCOc2cccc3c2OCCO3)C1)c1csc2ccccc12` [Compound 190, N-[[1-[2-(2,3-Dihydro-1,4-benzodioxin-5-yloxy)ethyl]azetidin-3-yl]methyl]-benzothiophene-3-sulphonamide], the inhibition at 1 µM in assay [1] was 51%; in assay [2], 62%; in assay [3], 100%; in assay [4], 68%; in assay [5], 34%; in assay [6], 97%. Also, the inhibition at 1 µM in assay [8] amounted to 31%. For the same compound, in assay [7], the “α1 [%]” value is 86%.

As for `O=S(=O)(NCC1CN(CCOc2cccc3c2OCCO3)C1)c1ccsc1` [Compound 191, N-[[1-[2-(2,3-Dihydro-1,4-benzodioxin-5-yloxy)ethyl]azetidin-3-yl]methyl]-thiophene-3-sulphonamide], the inhibition at 1 µM in assay [1] amounted to 7%; in assay [2] it was 25%; in assay [3], 98%; in assay [4], 42%; in assay [5], 5%; in assay [6], 93%. For the same compound, the inhibition at 1 µM in assay [8] was determined as 32%. In addition, the “α1 [%]” value in assay [7] is reported as 54%.

Regarding `O=S(=O)(NCC1CN(CCOc2cccc3c2OCCO3)C1)c1ccc(Cl)s1` [Compound 192, 5-Chloro-N-[[1-[2-(2,3-dihydro-1,4-benzodioxin-5-yloxy)ethyl]azetidin-3-yl]methyl]thiophene-2-sulphonamide], the inhibition at 1 µM in assay [1] turned out to be 42%; in assay [2], 70%; in assay [3] it was 79%; in assay [4], 86%; in assay [5], 30%; in assay [6], 97%. Also, in assay [8], the inhibition at 1 µM was found to be 38%. For the same compound, the “α1 [%]” value in assay [7] is reported as 88%.

Regarding `O=S(=O)(NCC1CN(CCOc2cccc3c2OCCO3)C1)c1ccc(I)cc1` [Compound 193, N-[[1-[2-(2,3-Dihydro-1,4-benzodioxin-5-yloxy)ethyl]azetidin-3-yl]methyl]-4-iodo-benzenesulphonamide], the inhibition at 1 µM in assay [1] turned out to be 81%; in assay [2], 55%; in assay [3], 84%; in assay [4] it was 88%; in assay [5] it was 9%; in assay [6], 92%. In assay [8], the inhibition at 1 µM was 41%. The “α1 [%]” value in assay [7] stood at 71%.

For `O=S(=O)(NC1CCN(CCCc2noc3cc(F)ccc23)C1)c1ccc2c(c1)OCO2` (centres unmarked) [Compound 194, N-[1-[3-(6-Fluoro-1,2-benzoxazol-3-yl)propyl]pyrrolidin-3-yl]-1,3-benzo-dioxole-5-sulphonamide], the inhibition at 1 µM in assay [1] stood at 19%; in assay [2] it was 48%; in assay [3], 63%; in assay [4], 29%; in assay [5] it was 53%; in assay [6], 82%. In addition, in assay [8], the inhibition at 1 µM amounted to 1%. In addition, the “α1 [%]” value in assay [7] is given as 96%.

As to `O=S(=O)(NC1CCN(CCCc2noc3cc(F)ccc23)C1)c1ccc(-c2ccccc2)cc1` (centres unmarked) [Compound 195, N-[1-[3-(6-Fluoro-1,2-benzoxazol-3-yl)propyl]pyrrolidin-3-yl]-4-phenyl-benzenesulphonamide], the inhibition at 1 µM is 93% in assay [1]; 82% in assay [2]; 47% in assay [3]; 101% in assay [4]; 86% in assay [5]; 86% in assay [6]. Also, the inhibition at 1 µM in assay [8] was determined as 7%. Also, the “α1 [%]” value in assay [7] turned out to be 79%.

Turning to `N#Cc1ccc(S(=O)(=O)NC2CCN(CCCc3noc4cc(F)ccc34)C2)cc1` (centres unmarked) [Compound 210, 4-Cyano-N-[1-[3-(6-fluoro-1,2-benzoxazol-3-yl)propyl]pyrrolidin-3-yl]benzenesulphonamide], the inhibition at 1 µM in assay [1] was 64%; in assay [2], 27%; in assay [3] it was 8%; in assay [4] it was 80%; in assay [5], 68%; in assay [6], 80%. The inhibition at 1 µM in assay [8] came out at 35%. In addition, the “α1 [%]” value in assay [7] stood at 94%.

`O=S(=O)(NCC1CCN(CCCc2noc3cc(F)ccc23)C1)c1ccc(Cl)c(Cl)c1` (centres unmarked) [Compound 253, 3,4-Dichloro-N-[[1-[3-(6-fluoro-1,2-benzoxazol-3-yl)propyl]pyrrolidin-3-yl]methyl]benzenesulphonamide]: the inhibition at 1 µM in assay [1] stood at 87%; in assay [2], 55%; in assay [3] it was 34%; in assay [4], 99%; in assay [5], 101%; in assay [6], 97%. Also, in assay [8], the inhibition at 1 µM is 12%. Also, the “α1 [%]” value in assay [7] is recorded as 94%.

By inhibition is commonly meant the change of the read-out against control, counted positive when it falls.

These data come from patent US20140135310A1, “SULPHONAMIDE DERIVATIVES OF ALICYCLIC AMINES FOR THE TREATMENT OF CENTRAL NERVOUS SYSTEM DISEASES” (Adamed Sp. z o.o., priority 2011, published 2014).
